Assay: UV-vis spectroscopy estimate of lutein-ester dissolved in ethanol
Type: physicochemical
Details: ethanol at 60° C., estimated from UV-vis spectroscopy; rest undissolved particles
Experimental: A suspension of lutein-ester (Blue California, Co.) was prepared by dissolving lutein-ester powder in ethanol at 60° C. under stirring. It is estimated from UV-vis spectroscopy that 20.0 wt % lutein-ester dissolves in ethanol at 60° C., and the rest are in the form of undissolved nanoparticles, mesoparticles, and microparticles. A solution of gum arabic (Sigma) was prepared by dissolving gum arabic in deionized water (18.2 Mega-Ohm·cm) at 60° C. under stirring until the gum arabic was completely dissolved and a clear solution was obtained.

## lutein-ester
  fraction of lutein-ester that dissolves in ethanol: 20.0 wt %

— patent US8663690B2, “Method for nanoencapsulation” (William Marsh Rice University, priority 2006, dated 2014)
